Paper PMC9099123 (Clinical and Translational Science, 2022)
“And” between values parts separate entries of the source, which are not always exact repeats. Equal values may be shown once.

What was measured:
[1] = Plasma PK of digoxin and rosuvastatin; conditions: for AUC(0-inf) / AUC(0-t) / Cmax / Vd/F / half-life: male, human, in vivo; for AUC(0-inf): AUCinf; for AUC(0-t): AUClast; for Vd/F: Vz/F; for half-life: t½
[2] = Urine PK of digoxin in men with mCRPC; type: in vivo, human; conditions: for CL renal: male, human, oral, CLR; for CL renal / Aelast%, GLSM / Aelast%, Mean ± SD / Aelast%, Median (range) / Aelast, Median (range): urine; for Aelast, Mean ± SD: urine up to 24 h
[3] = Safety and tolerability; type: in vivo, human; conditions: for TEAEs considered related to the drug: single dose in cocktail, days 1 and 64
[4] = tested on: P-gp; assay: Effect of enzalutamide on PK of digoxin; type: in vivo, human
[5] = Plasma PK of enzalutamide and N-desmethyl enzalutamide in men with mCRPC
[6] = tested on: BCRP; assay: Effect of enzalutamide on PK of rosuvastatin; type: in vivo, human
[7] = tested on: BCRP; conditions: co-administered with rifampin; cited from earlier work
[8] = tested on: P-gp; conditions: co-administration with rifampin; cited from earlier work
[9] = tested on: CYP2C9; conditions: previous clinical DDI studies, cited from earlier work
[10] = tested on: CYP3A4; conditions: human hepatocytes; ref data on file; cited from earlier work
[11] = tested on: CYP2C19; conditions: previous clinical DDI studies, cited from earlier work
[12] = clinical; conditions: male, human, plasma
[13] = tested on: CYP3A4; conditions: previous clinical DDI studies, cited from earlier work
[14] = GLSM, plasma, Enzalutamide + cocktail (day 64)
[15] = Mean ± SD, plasma, Cocktail (day 1)
[16] = Median (range), plasma, Cocktail (day 1)
[17] = Mean ± SD, plasma, Enzalutamide + cocktail (day 64)
[18] = Median (range), plasma, Enzalutamide + cocktail (day 64)
[19] = plasma, Enzalutamide + cocktail (day 64)
[20] = Enzalutamide + cocktail (day 64)
[21] = digoxin co-administered with enzalutamide versus taken alone
[22] = digoxin plasma, day 64 vs day 1
[23] = rosuvastatin co-administered with enzalutamide versus taken alone
[24] = rosuvastatin plasma, day 64 vs day 1
[25] = following enzalutamide, 2 patients

Compound: C[C@H]1O[C@@H](O[C@H]2[C@@H](O)C[C@H](O[C@H]3[C@@H](O)C[C@H](O[C@H]4CC[C@@]5(C)[C@H](CC[C@@H]6[C@@H]5C[C@@H](O)[C@]5(C)[C@@H](C7=CC(=O)OC7)CC[C@]65O)C4)O[C@@H]3C)O[C@@H]2C)C[C@H](O)[C@@H]1O [digoxin]
- digoxin plasma concentrations, all patients ([1]; cocktail day 1, 0.5–168 h postdose, above LLOQ): > 10 pg/mL
- AUC(0-inf) ([1]; GLSM, plasma, Cocktail (day 1)): 0.0241 µg·h/mL
- AUC(0-inf) [1, 14]: 0.0321 µg·h/mL
- AUC(0-inf) [1, 15]: 0.0246 µg·h/mL
- AUC(0-inf) [1, 16]: 0.0251 µg·h/mL
- AUC(0-t) ([1]; GLSM, plasma, Cocktail (day 1)): 0.0217 µg·h/mL
- AUC(0-t) [1, 14]: 0.028 µg·h/mL
- AUC(0-t) [1, 15]: 0.0221 µg·h/mL
- AUC(0-t) [1, 17]: 0.0287 µg·h/mL
- AUC(0-t) [1, 16]: 0.0227 µg·h/mL
- AUC(0-t) [1, 18]: 0.0271 µg·h/mL
- Cmax [1, 16]: 0.00147 µg/mL
- Cmax [1, 18]: 0.00162 µg/mL
- Vd/F [1, 15]: 785 ± 138 L
- Vd/F [1, 17]: 710 ± 114 L
- Vd/F [1, 16]: 786 L
- Vd/F [1, 18]: 727 L
- half-life [1, 15]: 52.3 ± 8.2 h
- half-life [1, 17]: 63.5 ± 9.5 h
- half-life [1, 16]: 50.5 h
- CL/F, Mean ± SD ([1]; plasma, Cocktail (day 1)): 10.6 ± 2.3 L/h
- CL/F, Median (range) ([1]; plasma, Cocktail (day 1)): 9.9 (7.4–16.3) L/h
- tmax, Median (range) ([1]; plasma, Cocktail (day 1)): 1.50 (0.50–3.00) h
- CL/F, Mean ± SD [1, 19]: 7.9 ± 1.7 L/h
- CL/F, Median (range) [1, 19]: 7.8 (4.6–11.6) L/h
- tmax, Median (range) [1, 19]: 1.00 (0.50–2.50) h
- Cmax, Mean ± SD ([1]; plasma, Enzalutamide + cocktail (day 64), enzalutamide 160 mg once daily): 0.00169 ± 0.000384 µg/mL
- CL renal ([2]; Mean ± SD, Cocktail (day 1)): 105 mL/min
- CL renal ([2]; Mean ± SD, Enzalutamide + cocktail (day 64)): 81.7 mL/min
- CL renal ([2]; Median (range), Cocktail (day 1)): 100 mL/min
- CL renal ([2]; Median (range), Enzalutamide + cocktail (day 64)): 78.3 mL/min
- Aelast, Mean ± SD ([2]; Cocktail (day 1)): 0.05 ± 0.01 mg
- Aelast, Mean ± SD [2, 20]: 0.05 ± 0.01 mg
- Aelast%, GLSM ([2]; Cocktail (day 1)): 19.4%
- Aelast%, Mean ± SD ([2]; Cocktail (day 1)): 20.1 ± 5.1%
- Aelast%, Median (range) ([2]; Cocktail (day 1)): 21.3 (9.2–31.5) %
- Aelast, Median (range) ([2]; Cocktail (day 1)): 0.05 (0.02–0.08) mg
- Aelast%, GLSM [2, 20]: 17.3%
- Aelast%, Mean ± SD [2, 20]: 18.2 ± 5.4%
- Aelast%, Median (range) [2, 20]: 17.9 (6.6–26.5) %
- Aelast, Median (range) [2, 20]: 0.04 (0.02–0.07) mg
- TEAEs considered related to the drug [3]: no TEAEs were considered to be related
- increase in AUCinf (GLSM ratio) [4, 21]: 33%
- increase in AUClast (GLSM ratio) [4, 21]: 29%
- increase in Cmax (GLSM ratio) [4, 21]: 17%
- AUCinf, GLSM ratio (95% CI) [4, 22]: 133.5 (125.3–142.2)
- AUClast, GLSM ratio (95% CI) [4, 22]: 129.1 (121.0–137.7)
- Cmax, GLSM ratio (95% CI) ([4]; digoxin plasma, enzalutamide + cocktail (day 64) vs cocktail (day 1)): 117.0 (105.8–129.3)
- decrease in Aelast% ([4]; digoxin urine, co-administered with enzalutamide): 10%
- Aelast%, GLSM ratio (95% CI) ([4]; digoxin urine, day 64 vs day 1): 89.6 (79.1–101.6)
- decrease in CLR ([4]; digoxin, co-administered with enzalutamide): 22%

Compound: CC1(C)C(=O)N(c2ccc(C#N)c(C(F)(F)F)c2)C(=S)N1c1ccc(C(N)=O)c(F)c1 [N‐desmethyl enzalutamide]
- Mean Ctrough ([5]; day 35): 9.1 µg/mL
- AUCtau, Mean ± SD ([5]; day 64): 259 ± 37.9 µg·h/mL
- AUCtau, Median (range) ([5]; day 64): 251 (189–327) h·µg/ml
- Cmax, Median (range) ([5]; day 64): 12.1 (8.9–15.3) µg/ml
- Ctrough, Mean ± SD ([5]; day 64): 11.6 µg/mL and 11.6 ± 1.9 µg/mL
- Ctrough, Median (range) ([5]; day 64): 11.7 (7.7–15.0) µg/ml
- Cmax, Mean ± SD ([5]; day 64, enzalutamide 160 mg oral once daily from day 8): 12.3 ± 1.7 µg/mL
- Mean Ctrough ([5]; day 68): 11.9 µg/mL
- Mean Ctrough ([5]; day 71): 12.1 µg/mL

Compound: CC(C)c1nc(N(C)S(C)(=O)=O)nc(-c2ccc(F)cc2)c1/C=C/[C@@H](O)C[C@@H](O)CC(=O)O [rosuvastatin]
- AUC(0-inf) ([1]; GLSM, plasma, Cocktail (day 1)): 0.0627 µg·h/mL
- AUC(0-inf) [1, 14]: 0.056 µg·h/mL
- AUC(0-inf) [1, 15]: 0.0695 µg·h/mL
- AUC(0-inf) [1, 17]: 0.0597 µg·h/mL
- AUC(0-inf) [1, 16]: 0.0686 µg·h/mL
- AUC(0-inf) [1, 18]: 0.0555 µg·h/mL
- AUC(0-t) ([1]; GLSM, plasma, Cocktail (day 1)): 0.0567 µg·h/mL
- AUC(0-t) [1, 14]: 0.0488 µg·h/mL
- AUC(0-t) [1, 15]: 0.0618 µg·h/mL
- AUC(0-t) [1, 17]: 0.0528 µg·h/mL
- AUC(0-t) [1, 16]: 0.0561 µg·h/mL
- AUC(0-t) [1, 18]: 0.0484 µg·h/mL
- Cmax ([1]; GLSM, plasma, Cocktail (day 1)): 0.0043 µg/mL
- Cmax [1, 16]: 0.00471 µg/mL
- Cmax [1, 18]: 0.00449 µg/mL
- Vd/F [1, 15]: 5400 ± 3950 L
- Vd/F [1, 17]: 5420 ± 3510 L
- Vd/F [1, 16]: 4310 L
- Vd/F [1, 18]: 3490 L
- half-life [1, 15]: 22.5 ± 11.4 h
- CL/F, Mean ± SD ([1]; plasma, Cocktail (day 1)): 163 ± 68.5 L/h
- CL/F, Median (range) ([1]; plasma, Cocktail (day 1)): 146 (94.5–366) L/h
- tmax, Median (range) ([1]; plasma, Cocktail (day 1)): 4.0 (1.0–6.0) h
- CL/F, Mean ± SD [1, 19]: 186 ± 62.4 L/h
- CL/F, Median (range) [1, 19]: 180 (91.6–314) L/h
- tmax, Median (range) [1, 19]: 3.0 (0.5–6.0) h
- TEAEs considered related to the drug [3]: no TEAEs were considered to be related
- increase in Cmax (GLSM ratio) [6, 23]: 6%
- reduction in AUClast (GLSM ratio) [6, 23]: 14%
- AUCinf, GLSM ratio (95% CI) [6, 24]: 89.3 (80.0–99.8)
- AUClast, GLSM ratio (95% CI) [6, 24]: 86.1 (77.5–95.7)
- Cmax, GLSM ratio (95% CI) ([6]; rosuvastatin plasma, enzalutamide + cocktail (day 64) vs cocktail (day 1)): 106.3 (94.7–119.3)

Compound: CO[C@H]1/C=C/O[C@@]2(C)Oc3c(C)c(O)c4c(O)c(c(/C=N/N5CCN(C)CC5)c(O)c4c3C2=O)NC(=O)/C(C)=C\C=C\[C@H](C)[C@H](O)[C@@H](C)[C@@H](O)[C@@H](C)[C@H](OC(C)=O)[C@@H]1C [rifampin]
- decrease in Cmax of rosuvastatin [7]: 30%
- decrease of AUC of digoxin [8]: 30%
- decrease of Cmax of digoxin [8]: 58%

Compound: CNC(=O)c1ccc(N2C(=S)N(c3ccc(C#N)c(C(F)(F)F)c3)C(=O)C2(C)C)cc1F [enzalutamide]
- inducer class ([9]; CYP2C9): moderate inducer
- reduction of exposure of probe substrate ([9]; CYP2C9 probe substrate): 56%
- Mean Ctrough ([5]; day 35): 14.1 µg/mL
- AUCtau, Median (range) ([5]; day 64): 344 (210–435) h·µg/ml
- Ctrough, Mean ± SD ([5]; day 64): 13.9 µg/mL
- Ctrough, Median (range) ([5]; day 64): 14.1 (8.3–19.4) µg/ml
- Ctrough, Mean ± SD ([5]; day 64, listed as Enzalutamide): 13.9 ± 2.9 µg/mL
- Mean Ctrough ([5]; day 68): 14.0 µg/mL
- Mean Ctrough ([5]; day 71): 14.0 µg/mL
- tolerability ([3]; enzalutamide alone and in combination with digoxin and rosuvastatin): well tolerated
- patients with decreased white blood cell count (TEAE) [3, 25]: 8.3%
- patients with dizziness (TEAE) [3, 25]: 8.3%
- patients with urinary tract infection (TEAE) [3, 25]: 8.3%
- patients with TEAEs considered potentially related to enzalutamide ([3]; one eosinophilia, two decreased white blood cell count, three patients): 12.5%
- deaths ([3]; whole study): no deaths
- serious TEAEs ([3]; whole study): No serious TEAEs were reported
- severity of all TEAEs ([3]; whole study): mild
- effect of enzalutamide on the PK of rosuvastatin (class) ([6]; 90% CI for Cmax and AUCinf GLSM ratios within 80–125%): no effect
- CYP3A4 mRNA induction, % of positive control [10]: 95.9%
- increase of CYP3A4 enzyme activity [10]: up to 3.88 fold
- increase of CYP3A4 mRNA levels [10]: ≤ 6.90 fold
- inducer class ([11]; CYP2C19): moderate inducer
- reduction of exposure of probe substrate ([11]; CYP2C19 probe substrate): 70%
- AUC ([12]; oral): 333 ± 57.8 µg·h/mL
- Cmax ([12]; oral): 17.2 µg/mL
- Cmax ([12]; po, 160 mg): 17.1 ± 2.8 µg/mL
- effect of enzalutamide on P-gp inhibition (class) ([4]; GLSM ratios of digoxin less than two-fold, enzalutamide 160 mg once daily): mild
- inducer class ([13]; CYP3A4): strong inducer
- reduction of exposure of probe substrate ([13]; CYP3A4 probe substrate): 86%
